How the values were obtained:
[1] = tested on: A549-ACE2 infected with SARS-CoV-2; experiment: morphology score (similarity to uninfected cells); higher = more like uninfected cells; conditions: 24 h
[2] = tested on: A549-ACE2 infected with SARS-CoV-2; experiment: cell count relative to DMSO; higher = less toxic; conditions: 24 h
[3] = tested on: HepG2; experiment: cell viability relative to DMSO; higher = less toxic; conditions: 72 h
[4] = tested on: Calu-3; experiment: as above; conditions: 72 h
[5] = tested on: Vero E6; experiment: as above; conditions: 72 h
[6] = tested on: Caco-2; experiment: as above; conditions: 72 h
[7] = tested on: U2OS; experiment: as above; conditions: 72 h
[8] = tested on: A549-ACE2 infected with SARS-CoV-2; experiment: SARS-CoV-2 infection rate relative to DMSO; higher = more infection; conditions: 24 h
[9] = tested on: HepG2; experiment: relative viability EC50 (midpoint between 100% and the lowest measured viability); higher = less toxic; conditions: 72 h
[10] = tested on: Calu-3; experiment: as above; conditions: 72 h
[11] = tested on: Vero E6; experiment: as above; conditions: 72 h
[12] = tested on: Caco-2; experiment: as above; conditions: 72 h
[13] = tested on: U2OS; experiment: as above; conditions: 72 h
[14] = tested on: HepG2; experiment: drug sensitivity score (DSS) for viability; higher = more toxic; extreme values may be limits of the assay; conditions: 72 h
[15] = tested on: Calu-3; experiment: as above; conditions: 72 h
[16] = tested on: Vero E6; experiment: as above; conditions: 72 h
[17] = tested on: Caco-2; experiment: as above; conditions: 72 h
[18] = tested on: U2OS; experiment: as above; conditions: 72 h
[19] = tested on: A549-ACE2; experiment: drug-induced phospholipidosis relative to tamoxifen; higher = more phospholipidosis
[20] = tested on: A549-ACE2; experiment: phospholipidosis EC50; higher = less potent phospholipidosis inducer

CCCOC(C(=O)OC1CCN(C)CC1)(c1ccccc1)c1ccccc1 [propiverine]
Conditions	SARS-CoV-2 infection rate [%]	cell count [%]	cell viability [%]	morphology score	phospholipidosis EC50 [µM]
[1], 0.3 µM	–	–	–	0.19	–
[1], 3 µM	–	–	–	0.77	–
[1], 10 µM	–	–	–	0.9	–
[1], 30 µM	–	–	–	0.74	–
[2], 0.3 µM	–	101	–	–	–
[2], 3 µM	–	119	–	–	–
[2], 10 µM	–	120	–	–	–
[2], 30 µM	–	110	–	–	–
[3], 1 nM	–	–	106	–	–
[3], 10 nM	–	–	109	–	–
[3], 100 nM	–	–	104	–	–
[3], 1000 nM	–	–	117	–	–
[3], 10000 nM	–	–	78	–	–
[4], 1 nM	–	–	93.5	–	–
[4], 10 nM	–	–	95.1	–	–
[4], 100 nM	–	–	100	–	–
[4], 1000 nM	–	–	105	–	–
[4], 10000 nM	–	–	80.4	–	–
[5], 1 nM	–	–	103	–	–
[5], 10 nM	–	–	95	–	–
[5], 100 nM	–	–	105	–	–
[5], 1000 nM	–	–	96.4	–	–
[5], 10000 nM	–	–	98.4	–	–
[6], 1 nM	–	–	102	–	–
[6], 10 nM	–	–	102	–	–
[6], 100 nM	–	–	102	–	–
[6], 1000 nM	–	–	95.5	–	–
[6], 10000 nM	–	–	89.7	–	–
[7], 1 nM	–	–	107	–	–
[7], 10 nM	–	–	99	–	–
[7], 100 nM	–	–	99.5	–	–
[7], 1000 nM	–	–	97.8	–	–
[7], 10000 nM	–	–	96.8	–	–
[8], 0.3 µM	95	–	–	–	–
[8], 3 µM	51	–	–	–	–
[8], 10 µM	17	–	–	–	–
[8], 30 µM	11	–	–	–	–
[20], 24 h	–	–	–	–	2.8
[20], 48 h	–	–	–	–	4.22
[20], 72 h	–	–	–	–	5.23

Conditions	drug sensitivity score	relative viability EC50 [µM]
[9]	–	> 10
[10]	–	> 10
[11]	–	> 10
[12]	–	> 10
[13]	–	> 10
[14]	0.4	–
[15]	0.4	–
[16]	0	–
[17]	0	–
[18]	0	–

drug-induced phospholipidosis [%], [19]
Conditions	0.3 µM	0.833333 µM	3.33333 µM	6.66667 µM	10 µM	30 µM
24 h	2.28	8.59	66.7	91.7	105	109
48 h	4.59	4.15	46.3	84.9	98.8	115
72 h	4.64	4.08	43.7	80.2	95.8	123

c1ccc(-c2nn3c(c2-c2ccnc4cc(OCCN5CCOCC5)ccc24)CCC3)nc1
Conditions	SARS-CoV-2 infection rate [%]	cell count [%]	cell viability [%]	morphology score	phospholipidosis EC50 [µM]
[1], 0.3 µM	–	–	–	0.43	–
[1], 3 µM	–	–	–	0.25	–
[1], 10 µM	–	–	–	0.09	–
[1], 30 µM	–	–	–	-0.11	–
[2], 0.3 µM	–	108	–	–	–
[2], 3 µM	–	104	–	–	–
[2], 10 µM	–	96	–	–	–
[2], 30 µM	–	95	–	–	–
[3], 1 nM	–	–	103	–	–
[3], 10 nM	–	–	100	–	–
[3], 100 nM	–	–	96.6	–	–
[3], 1000 nM	–	–	95.7	–	–
[3], 10000 nM	–	–	74.7	–	–
[4], 1 nM	–	–	102	–	–
[4], 10 nM	–	–	86.3	–	–
[4], 100 nM	–	–	104	–	–
[4], 1000 nM	–	–	96	–	–
[4], 10000 nM	–	–	101	–	–
[5], 1 nM	–	–	102	–	–
[5], 10 nM	–	–	99.8	–	–
[5], 100 nM	–	–	111	–	–
[5], 1000 nM	–	–	108	–	–
[5], 10000 nM	–	–	105	–	–
[6], 1 nM	–	–	94.1	–	–
[6], 10 nM	–	–	106	–	–
[6], 100 nM	–	–	95.8	–	–
[6], 1000 nM	–	–	100	–	–
[6], 10000 nM	–	–	94.6	–	–
[7], 1 nM	–	–	95.4	–	–
[7], 10 nM	–	–	105	–	–
[7], 100 nM	–	–	91.6	–	–
[7], 1000 nM	–	–	90.4	–	–
[7], 10000 nM	–	–	76.5	–	–
[8], 0.3 µM	82	–	–	–	–
[8], 3 µM	97	–	–	–	–
[8], 10 µM	108	–	–	–	–
[8], 30 µM	106	–	–	–	–
[20], 24 h	–	–	–	–	15.2
[20], 72 h	–	–	–	–	12.7

Conditions	drug sensitivity score	relative viability EC50 [µM]
[10]	–	> 10
[11]	–	> 10
[12]	–	> 10
[13]	–	> 10
[14]	1.6	–
[15]	0	–
[16]	0	–
[17]	0	–
[18]	1.5	–

drug-induced phospholipidosis [%], [19]
Conditions	0.3 µM	0.833333 µM	3.33333 µM	6.66667 µM	10 µM	30 µM
24 h	7.41	15.4	31.7	44.4	57.5	78.6
48 h	5.26	4.41	16.2	19.5	30.1	52.8
72 h	2.76	-1.59	7.52	15.3	29.5	58.6

OC1(c2ccc(Cl)c(C(F)(F)F)c2)CCN(CCCC(c2ccc(F)cc2)c2ccc(F)cc2)CC1 [penfluridol]
Conditions	SARS-CoV-2 infection rate [%]	cell count [%]	cell viability [%]	morphology score	phospholipidosis EC50 [µM]
[1], 0.1 µM	–	–	–	0.06	–
[1], 0.3 µM	–	–	–	0.27	–
[1], 1 µM	–	–	–	0.55	–
[1], 3 µM	–	–	–	0.86	–
[2], 0.1 µM	–	101	–	–	–
[2], 0.3 µM	–	94	–	–	–
[2], 1 µM	–	113	–	–	–
[2], 3 µM	–	95	–	–	–
[3], 1 nM	–	–	106	–	–
[3], 10 nM	–	–	108	–	–
[3], 100 nM	–	–	104	–	–
[3], 1000 nM	–	–	103	–	–
[3], 10000 nM	–	–	0.2	–	–
[4], 1 nM	–	–	102	–	–
[4], 10 nM	–	–	95.2	–	–
[4], 100 nM	–	–	100	–	–
[4], 1000 nM	–	–	93.1	–	–
[4], 10000 nM	–	–	1	–	–
[5], 1 nM	–	–	105	–	–
[5], 10 nM	–	–	96.3	–	–
[5], 100 nM	–	–	94.1	–	–
[5], 1000 nM	–	–	97.8	–	–
[5], 10000 nM	–	–	0.1	–	–
[6], 1 nM	–	–	87.3	–	–
[6], 10 nM	–	–	74.2	–	–
[6], 100 nM	–	–	96.5	–	–
[6], 1000 nM	–	–	82.2	–	–
[6], 10000 nM	–	–	0.3	–	–
[7], 1 nM	–	–	99.4	–	–
[7], 10 nM	–	–	100	–	–
[7], 100 nM	–	–	104	–	–
[7], 1000 nM	–	–	93.2	–	–
[7], 10000 nM	–	–	3	–	–
[8], 0.1 µM	100	–	–	–	–
[8], 0.3 µM	102	–	–	–	–
[8], 1 µM	74	–	–	–	–
[8], 3 µM	8	–	–	–	–
[20], 24 h	–	–	–	–	0.874

Conditions	drug sensitivity score	relative viability EC50 [µM]
[9]	–	3.34
[10]	–	2.6
[11]	–	3
[12]	–	1.83
[13]	–	2.6
[14]	5.3	–
[15]	6.5	–
[16]	5.9	–
[17]	8.4	–
[18]	6.4	–

drug-induced phospholipidosis [%], [19]
Conditions	0.3 µM	0.833333 µM	3.33333 µM	6.66667 µM
24 h	12.8	30.2	64.4	48.3
48 h	13.8	28.2	67.6	–
72 h	16.8	26.4	77.7	–
